Entries after “also recorded” stand apart in the source; their conditions may differ.
How the values were obtained:
blood vessel (rat aorta) = assay: Acetylcholine induced relaxation of phenylephrine-preconstricted aorta after β-amyloid pretreatment; assay type: cell-based
Procedure: (§1) Freshly excised rat and porcine blood vessels were placed in Kreb's bicarbonate buffer equilibrated with 5% CO2 in O2. The buffer composition consisted of 118.2 mM NaCl, 4.7 mM KCl, 1.2 mM MgSO4, 2.5 mM CaCl2, 1.2 mM NaH2 PO4, 23 mM NaHCO3 and 11.2 mM glucose. After cleaning the vessels free of fat and other adhering tissues, the vessels were cut into ring segments of approximately 3mm in length. Care was taken not to damage the intimal surface.
(§2) The blood vessel preparations were mounted on stainless steel hooks attached to a force-displacement transducer and equilibrated under the optimum tension of 1.3 g for a period of sixty minutes in a tissue bath (10 ml) containing oxygenated (5% CO2 in O2) Kreb's buffer at 37° C. The buffer was changed every fifteen minutes. After equilibration for sixty minutes the viability of the blood vessel with intact endothelium was established by constricting the blood vessel using phenylephrine ([…]). This dose of phenylephrine elicited 80% of the maximum response. […] The vessel preparations were washed for fifteen minutes before various manipulations as described below.
As shown in FIG. 11a the aorta was preconstricted with 10^-7 M PE and relaxed with increasing doses of acetylcholine as shown by the arrows. (1=10^-9 M, 2=10^-8 M, 3=5×10^-8 M, 4=10^-7 M, 5=5×10^-7 M, 6=10^-6 M, 7=10^-5 M, 8=5×10^-5 M, the curve denoted by (C) is the control curve and +Aβ indicates the curve for β-amyloid treated aorta.)
FIG. 11b illustrates the relaxation by acetylcholine under control conditions and following fifteen minute incubation with 10^-6 M β-amyloid protein. The acetylcholine relaxation curve is shifted to the right but maintains its sigmoidal form indicating attenuation of acetylcholine induced relaxation. Values represent the mean ±SEM of 5 or more experiments. […] At higher doses of acetylcholine greater percentage changes in relaxation occur preserving the sigmoidal response.

[1] = test system: blood vessel (rat aorta) with intact endothelium; assay: β-amyloid induced contraction (vasoactivity) of blood vessel rings in tissue bath; assay type: cell-based
Procedure: as §1
The endothelium was removed from some preparations by rubbing the inside of the lumen with a metal spatula for six to ten seconds and subsequent rinsing with buffer. The removal of endothelium was confirmed by testing for relaxation to acetylcholine [Furchgott and Zawadzki, 1980].
as §2
Referring to FIG. 10, the arrow indicates the addition of 10^-6 M β-amyloid. The control tissue received no β-amyloid. SOD (150 units/ml) was added thirty seconds prior to the addition of β-amyloid. The maximum contraction induced by β-amyloid was 1.14±0.13 (g) and in presence of SOD the contraction was reduced to 0.04±0.02 (g). Values represent the mean ±SEM of five separate experiments.

aortic rings = assay: β-amyloid augmentation of phenylephrine (PE) induced contraction of aortic rings; assay type: cell-based, rat; details: for PE induced contraction, +β-Amyloid P1 (±SEM), percent of control value: 10^-6 M β-amyloid fifteen minutes, control maximum = 100%; for PE induced contraction, +β-Amyloid P2 (±SEM), percent of control value: repeated after rinsing, no further β-amyloid
Procedure: as §1, §2
The procedure was then repeated following incubation of the tissue with 10^-6 M β-amyloid for fifteen minutes (P1). The tissue was then rinsed and contractions repeated twice following fifteen minute incubation (P2 & P3) without further addition of β-amyloid. Arrows are shown for points of addition for P3.
Following a fifteen minute incubation, the preparations were contracted with 10^-7 M phenylephrine (PE) as described earlier. Control contractions with PE alone were carried out in presence of the various test compounds. Values represent the mean ±SEM of four or more experiments. The heat-inactivated SOD was prepared by placing it in boiling water for thirty minutes followed by cooling prior to use. The hydrogen peroxide-inactivated SOD was prepared by exposing SOD to 10 mM H2 O2 for thirty minutes at pH 8.5 and subsequent separation using Microcon filtration system. The amyloid induced PE contraction was blocked by active SOD. Neither albumin or inactivated SOD had any effect on the amyloid activity.
The effect of preincubation of blood vessel with 10^-6 M β-amyloidon contraction induced by phenylephrine (2,4,8, & 16×10^-8 M is shown in Table 1). The maximum contraction in the absence of β-amyloid is taken as 100% and the values obtained following exposure to β-amyloid are expressed as percent of control value. After washing out phenylephrine and acetylcholine of the control contraction, β-amyloid augmented the phenylephrine induced contractions (P1). This effect was blocked by SOD. Washing out the phenylephrine and acetylcholine of the post peptide contraction and repeating the contractions caused further enhancement (P2). Values represent the mean ±SEM of nine or more experiments.
The tissue was then incubated for fifteen minutes with β-amyloid (5×10^-7 M) with or without the drug, followed by contractions with PE. The concentrations compounds used were: L-NMMA, an inhibitor of NO synthase (10^-4 M); indomethacin, an inhibitor of the cyclooxygenase pathway (10^-5 M); SQ 29548, a thromboxane A2 receptor antagonist (10^-5 M); and catalase (1000 units/ml). Values are represented as percentage of the maximal contraction obtained with β-amyloid and PE alone and standardized to remove the intrinsic effects (if any) of each drug on PE contraction alone. The results represent the mean ±SEM of five or more experiments.

[2] = test system: endothelial cells in aortic rings; assay: Electron microscopy of the endothelial cell layer in aortic rings; assay type: cell-based, rat
Procedure: As shown in FIGS. 14A-F, […], or in presence of β-amyloid (10^-6 M), or SOD (150 units/ml) and β-amyloid.The tissue samples were kept in glutaraldehyde solution at 4° C. until processed and then rinsed with cacodylate buffer. The tissues were postfixed with 1% buffered osmium tetroxide, dehydrated with graded ethanol solutions, and embedded in a mixture of eponaraldite. Ultrathin sections were stained with uranyl acetate and lead citrate and viewed on model 7000 Hitachi transmission electron microscope. The inset bar indicates one micron. The experiment was repeated three or more times with blood vessels from different animals.

[3] = test system: porcine coronary arteries; assay: Amyloid peptide induced contraction of porcine coronary arteries; assay type: cell-based; details: increasing concentrations of amyloid peptide
Excerpt: Freshly isolated porcine coronary arteries were studied by the methods described above for rat aorta.

[4] = test system: bovine mid cerebral arteries; assay: Effect of β-amyloid on bovine cerebral artery (U46619 contraction, bradykinin vasodilation); assay type: cell-based; details: 1 μM β-amyloid for 15 minutes
Procedure: Freshly dissected bovine mid cerebral arteries were cut into 3 mm rings and studied in tissue chamber as described earlier. Contraction of the blood vessel to the vasoconstrictor U46619 was studied before and after treatment with 1 μM β-amyloid for 15 minutes. […] (See FIG. 24).

Porcine aorta = assay: U46619 constriction and bradykinin relaxation of porcine vessel after amyloid peptide; assay type: cell-based; details: single dose of amyloid
Excerpt: The effect of pre-treatment with a single dose of amyloid protein on relaxation induced by increasing concentrations of the vasodilator bradykinin is shown in FIG. 23. […] was preconstricted with a single dose of the vasoconstrictor U46619.

[5] = test system: endothelial cell layer in rat coronary artery; assay: Electron microscopy of the endothelial cell layer in rat coronary artery; assay type: cell-based; details: β-amyloid thirty minutes at 10^-6 M
Procedure: The physiological effects of β-amyloid treatment on the coronary artery with and without pretreatment with SOD is shown in FIGS. 7A-C. FIGS. 7A-C are electron micrographs showing the endothelial cell layer in rat coronary artery. […] The tissue samples were kept in glutaraldehyde solution at 4° C. until processed and then rinsed with cacodylate buffer. The tissues were post-fixed with 1% buffered osmium tetroxide, dehydrated with grated ethanol solutions, and embedded in a mixture of eponaraldite. Ultra thin sections were stained with uranyl acetate and lead citrate and viewed on a model 7,000 Hitachi transmission electron microscope. The inset bar indicates two microns. The experiment was repeated three or more times with blood vessels from different animals. FIG. 7A is a control coronary artery and depicts normal endothelial cells closely adhering to the intimal elastic lamina lining of the lumen. […] FIG. 7C depicts a rat coronary artery pretreated with SOD (150 units/ml, for thirty seconds prior to the addition of β-amyloid).

β-amyloid concentration required to induce the morphological changes ([2]; incubation periods of fifteen minutes): ≥ 5×10^-7 M
Substance: β-amyloid
cumulative percentage relaxation by acetylcholine after β-amyloid (blood vessel (rat aorta); 10^-6 M β-amyloid, fifteen minute incubation, 10^-7 M phenylephrine, all points past 10^-8 M acetylcholine): significantly lowered
effect of β-amyloid pretreatment on acetylcholine induced relaxation (blood vessel (rat aorta); cumulative small doses of acetylcholine (FIG. 4)): significantly reduced relaxation induced by the same doses of acetylcholine
effect of washing the tissue after β-amyloid on acetylcholine induced relaxation (blood vessel (rat aorta); washout after β-amyloid exposure): did not restore the acetylcholine-induced relaxation to control levels
duration of the vasoactivity (contractions and relaxations) [1]: fifteen to twenty minutes
time until vasoactive effect is evident [1]: within thirty seconds; also recorded: less than one minute; also recorded: less than five minutes
initial detectable change: minor relaxation ([1]; after addition of β-amyloid): < 0.1 g
effect of β-amyloid on basal tension ([1]; increasing concentrations of β-amyloid): constricted the blood vessel in a concentration-dependent manner
dependence of the constricting effect on endothelium ([1]; vessel with vs without endothelium): only occurred in the presence of endothelium
effect of β-amyloid pretreatment on phenylephrine constriction (aortic rings; FIG. 4): enhanced constriction
PE induced contraction, +β-Amyloid P1 (±SEM), percent of control value (aortic rings; PE 2×10^-8 M): 13.3 (5.9) %
PE induced contraction, +β-Amyloid P2 (±SEM), percent of control value (aortic rings; PE 2×10^-8 M): 20 (5.0) %
PE induced contraction, +β-Amyloid P1 (±SEM), percent of control value (aortic rings; PE 4×10^-8 M): 75 (6.0) %
PE induced contraction, +β-Amyloid P2 (±SEM), percent of control value (aortic rings; PE 4×10^-8 M): 99 (15.0) %
PE induced contraction, +β-Amyloid P1 (±SEM), percent of control value (aortic rings; PE 8×10^-8 M): 105 (15.0) %
PE induced contraction, +β-Amyloid P2 (±SEM), percent of control value (aortic rings; PE 8×10^-8 M): 133 (20.0) %
PE induced contraction, +β-Amyloid P1 (±SEM), percent of control value (aortic rings; PE 16×10^-8 M): 128 (11.7) %
PE induced contraction, +β-Amyloid P2 (±SEM), percent of control value (aortic rings; PE 16×10^-8 M): 141 (17.6) %
morphological effect on endothelial cells ([2]; β-amyloid 10^-6 M, 37° C., thirty minutes): induced significant damage to the endothelial cells
contraction of porcine coronary artery samples [3]: dose dependent contraction
contraction induced by the vasoconstrictor U46619 after β-amyloid [4]: significantly increased
effect on vasodilation by bradykinin (Porcine aorta; increasing concentrations of bradykinin): reduced the vasodilation caused by the bradykinin
effect on vasoconstriction (Porcine aorta; preconstricted with U46619): significant increase in vasoconstriction
morphology of endothelial layer after β-amyloid [5]: Derangement of the endothelial layer, condensed nucleus, separation from the intimal elastic lamina, and areas of denuded internal elastic lamina

Source: patent US6140309A, “Vasoactive effects and free radical generation by β-amyloid peptides” (University of South Florida, priority 1996, dated 2000)
